The text below walks through data of PMC7892954, “In vivo Pharmacokinetic Drug-Drug Interaction Studies Between Fedratinib and Antifungal Agents Based on a Newly Developed and Validated UPLC/MS-MS Method” (Frontiers in Pharmacology, 2021).

For data set [1] the following is noted: healthy volunteers, 2015, cited from earlier work.
Details of data set [2]: method as in Ogasawara et al., 2020. Particulars: a strong CYP3A4 inhibitor, ref Ogasawara et al., 2020; cited from earlier work.
Data set [3] can be described thus: DDI study: pharmacokinetics of fedratinib in rats with or without antifungal drugs. Conditions: for AUC(0-inf) / AUC(0-t) / Cmax / Tmax / half-life / CL/F / MRT last / MRT inf: male, Sprague-Dawley, rat, plasma, po, 40 mg/kg, 40 mg/kg fedratinib oral gavage, n = 6, Mean ± SD; for CL/F: read-out: CLz/F (converted); for MRT last: read-out: MRT0→t; for MRT inf: read-out: MRT0→∞. It is filed as in vivo, Sprague-Dawley (SD) rats. An excerpt: The UPLC-MS/MS procedures were developed and validated to detect fedratinib concentration in plasma to support an investigational study in healthy male Sprague-Dawley (SD) rats (weighing 200 ± 20 g), which were purchased from Laboratory Animal Center of Wenzhou Medical University (Wenzhou, China). The protocols and procedures of the animal experiment were checked in accordance with the regulations defined by Wenzhou Medical University Animal Care and Use Committee (wydw 2018-0002). Before experiment, rats were housed in the environmentally controlled feeding room, and had free access to the water and food.
After 30 min, each rat was administered 40 mg/kg fedratinib by oral gavage. Then, at the time points of 0, 0.333, 0.667, 1, 2, 4, 6, 9, 12, 24, and 48 h, heparinized 1.5 ml polythene tubes were used to collect the blood samples with approximate volume of 0.3 ml. Subsequently, plasma sample (100 µL) was separated and gained after centrifugation of the whole blood samples at room temperature for 10 min with the speed of 4,000 g, and all the plasma samples were placed and held at −80 °C prior to analysis.
Drug and Statistics (DAS) 2.0 software (Shanghai University of Traditional Chinese Medicine, China) was used to analysis the main pharmacokinetic parameters of fedratinib in rats through non-compartmental approach. The comparisons of the main pharmacokinetic parameters of different groups were conducted in one-way analysis of variance equipped with the Dunnett’s test by Statistical Package for the Social Sciences (SPSS Inc., Chicago, IL, United States) version 17.0 software. In any case, if the value of p was below 0.05, it was deemed to be statistically significant.

Data set [4] is described as follows: Stability of fedratinib in rat plasma under different conditions (UPLC-MS/MS). Type of data set: in vitro ADME. Particulars: for Stability RE (%): n = 5. As to the method:
The stability of the analyte in rat plasma under various conditions at LQC and HQC concentration levels (n = 5) was assessed, which were subjected to at room temperature for about 2 h, in the auto-sampler for 6 h at 10 °C prior to analysis, three freeze-thaw cycles (−80 °C to room temperature), and also storage at −80 °C for 21 days. The stability results of this assay in rat plasma should be acceptable when five replicates of QC samples at LQC and HQC concentrations were evaluated and compared with the real concentrations.

The mark [5] stands for this setting: Group A: control (0.5% CMC-Na) 30 min before.
The mark [6] stands for this setting: Group B: 20 mg/kg isavuconazole 30 min before.
Setting [7] is: Group C: 20 mg/kg posaconazole 30 min before.
The mark [8] stands for this setting: Group D: 20 mg/kg fluconazole 30 min before.
The mark [9] stands for this setting: Group E: 20 mg/kg itraconazole 30 min before.
The mark [10] stands for this setting: 20 mg/kg antifungal 30 min before 40 mg/kg fedratinib oral.

Where two headings read alike, the source gives them in different places.

On to `Cc1cnc(Nc2ccc(OCCN3CCCC3)cc2)nc1Nc1cccc(S(=O)(=O)NC(C)(C)C)c1` [Fedratinib], for which the “Impact of pantoprazole on the pharmacokinetics of fedratinib” value in data set [1] (40 mg pantoprazole once daily with a single dose of 500 mg fedratinib, ref Xu et al.) is listed as “no significantly impact”. Further, the “Effect of intake of food on pharmacokinetics and bioavailability of fedratinib” value in data set [1] (ref Zhang et al.) was “slightly affect”. In addition, the “Effect of ketoconazole on systemic exposure of fedratinib” value in data set [2] is given as “increases the systemic exposure of fedratinib”. Also, the “Key pharmacokinetic parameters (AUC0→t, AUC0→∞, MRT0→t, MRT0→∞, t1/2, Tmax, CLz/F, Cmax) compared with control Group A” value in data set [3] (fedratinib co-administrated with posaconazole (Group C)) is listed as “no significant differences”. Besides, the AUC(0-inf) in data set [3] (setting [5]) is 2150 ± 396 ng·h/mL; in data set [3] (setting [6]), 2720 ± 427 ng·h/mL; in data set [3] (setting [7]) it was 2510 ± 260 ng·h/mL; in data set [3] (setting [8]), 3890 ± 680 ng·h/mL; in data set [3] (setting [9]), 3320 ± 383 ng·h/mL. Further, the AUC(0-t) worked out at 2010 ± 309 ng·h/mL in data set [3] (setting [5]); 2590 ± 406 ng·h/mL in data set [3] (setting [6]); 2320 ± 202 ng·h/mL in data set [3] (setting [7]); 3800 ± 653 ng·h/mL in data set [3] (setting [8]); 3130 ± 317 ng·h/mL in data set [3] (setting [9]). Moreover, the maximum concentration (Cmax) is 101 ± 12.9 ng/mL in data set [3] (setting [5]); 123 ± 17.2 ng/mL in data set [3] (setting [6]); 98.1 ± 16.6 ng/mL in data set [3] (setting [7]); 232 ± 33.1 ng/mL in data set [3] (setting [8]); 187 ± 22.2 ng/mL in data set [3] (setting [9]). Also, the Tmax came out at 5.43 ± 0.98 h in data set [3] (setting [5]); 6.4 ± 1.34 h in data set [3] (setting [6]); 6 ± 1.08 h in data set [3] (setting [7]); 7.8 ± 1.64 h in data set [3] (setting [8]); 7.2 ± 1.64 h in data set [3] (setting [9]). For the same compound, the half-life in data set [3] (setting [5]) was 663 ± 163 min; in data set [3] (setting [6]), 667 ± 174 min; in data set [3] (setting [7]), 705 ± 174 min; in data set [3] (setting [8]) it was 654 ± 143 min; in data set [3] (setting [9]), 609 ± 203 min. The CL/F in data set [3] (setting [5]) is 320 mL/min/kg; in data set [3] (setting [6]), 247 mL/min/kg; in data set [3] (setting [7]), 277 mL/min/kg; in data set [3] (setting [8]) it was 176 mL/min/kg; in data set [3] (setting [9]) it was 204 mL/min/kg. Moreover, the MRT last was found to be 14.4 ± 1.41 h in data set [3] (setting [5]); 14.9 ± 0.87 h in data set [3] (setting [6]); 14.3 ± 1.21 h in data set [3] (setting [7]); 13.4 ± 1.3 h in data set [3] (setting [8]); 14.5 ± 1.95 h in data set [3] (setting [9]). Also, the MRT inf in data set [3] (setting [5]) is 15.6 ± 1.65 h; in data set [3] (setting [6]) it was 15.5 ± 1.34 h; in data set [3] (setting [7]), 14.6 ± 1.32 h; in data set [3] (setting [8]) it was 13.9 ± 1.36 h; in data set [3] (setting [9]), 15.2 ± 2.1 h. Also, the “Stability RE (%)” value in data set [4] (1.5 ng/ml, Auto-sampler 10°C, 6 h) is 8.3%; in data set [4] (1.5 ng/ml, Room temperature, 2 h) it was 14.1%; in data set [4] (1.5 ng/ml, Three freeze-thaw (−80 °C to room temperature)), −4.6%; in data set [4] (1.5 ng/ml, −80°C, 21 days), 2.7%; in data set [4] (400 ng/ml, Auto-sampler 10°C, 6 h) it was 11.4%; in data set [4] (400 ng/ml, Room temperature, 2 h) it was 10.3%. The “Stability RE (%)” value is 12.5% in data set [4] (400 ng/ml, Three freeze-thaw (−80 °C to room temperature)) and 14.2% in data set [4] (400 ng/ml, −80°C, 21 days). In data set [4] (LQC and HQC, all four storage conditions), the “Deviation from nominal concentrations (stability)” value was < 15%.

Consider `C[C@@H](c1nc(-c2ccc(C#N)cc2)cs1)[C@](O)(Cn1cncn1)c1cc(F)ccc1F` [isavuconazole], for which, in data set [3] (setting [10]), the “Inhibitory effect on fedratinib metabolism” value is given as “inhibitory effect on fedratinib metabolism to a certain extent” and the “Order of inhibitory effect on fedratinib metabolism” value (“Order of inhibitory effect” below) is listed as “fluconazole > itraconazole > isavuconazole > posaconazole”.

Consider `CCC(C)n1ncn(-c2ccc(N3CCN(c4ccc(OCC5COC(Cn6cncn6)(c6ccc(Cl)cc6Cl)O5)cc4)CC3)cc2)c1=O` (stereo not drawn) [itraconazole], for which the “Order of inhibitory effect” value in data set [3] (setting [10]) is reported as “fluconazole > itraconazole > isavuconazole > posaconazole”.

For `CC[C@@H]([C@H](C)O)n1ncn(-c2ccc(N3CCN(c4ccc(OC[C@@H]5CO[C@@](Cn6cncn6)(c6ccc(F)cc6F)C5)cc4)CC3)cc2)c1=O` [posaconazole], in data set [3] (setting [10]), the “Order of inhibitory effect” value is “fluconazole > itraconazole > isavuconazole > posaconazole”.
